The test system of the data set is rodent lifetime carcinogenesis bioassay, tumor incidence TD50. Nature of the data set: chronic cancer bioassays in animals – CPDB, compiled studies (AID 1745844).

Among the data in PubChem BioAssay AID1745844 (Carcinogenic Potency Database (CPDB), 2022) are TD50 and carcinogen call values, retold here.

Structures are written as SMILES. Several values for one entry are separate records, joined by “and”; a condition that tells them apart may be missing. Identical values can stand only once. Activity calls are given as the source filed them. How the calls were made is not given here.

A word on the TD50: it is the 50% point of the dose-response relation for the toxic effect studied.

In the case of `O=C1CN(N=Cc2ccc([N+](=O)[O-])o2)C(=O)N1`, the TD50 is 4000 mg/kg/day (inactive) (mouse, strain B6C3F1, females, in feed, site: cervix uteri, lesion: leiomyosarcoma, dosed 64 weeks, study length 64 weeks); 2330 mg/kg/day (mouse, strain B6C3F1, females, in feed, site: liver, lesion: hepatocellular adenoma + hepatocellular carcinoma + neoplastic nodule, dosed 103 weeks, study length 105 weeks); 866 mg/kg/day (mouse, strain B6C3F1, females, in feed, site: ovary, lesion: granulosa-cell tumor, benign + granulosa-cell tumor, malignant + mixed tumor, benign + tubular adenoma, dosed 103 weeks, study length 105 weeks); 2560 mg/kg/day (mouse, strain B6C3F1, females, in feed, site: ovary, lesion: granulosa-cell tumor, benign + granulosa-cell tumor, malignant, dosed 103 weeks, study length 105 weeks); 8470 mg/kg/day (mouse, strain B6C3F1, females, in feed, site: ovary, lesion: granulosa-cell tumor, benign, dosed 103 weeks, study length 105 weeks); 4020 mg/kg/day (inactive) (mouse, strain B6C3F1, females, in feed, site: ovary, lesion: granulosa-cell tumor, dosed 64 weeks, study length 64 weeks). The TD50 (mouse, strain B6C3F1, females, in feed, site: ovary, lesion: mixed tumor, benign + tubular adenoma, dosed 103 weeks, study length 105 weeks) was 1400 mg/kg/day; the TD50 (mouse, strain B6C3F1, females, in feed, site: ovary, lesion: mixed tumor, benign, dosed 103 weeks, study length 105 weeks) is 3380 mg/kg/day; the TD50 (mouse, strain B6C3F1, females, in feed, site: ovary, lesion: tubular adenoma, dosed 103 weeks, study length 105 weeks) was 2530 mg/kg/day; the TD50 (mouse, strain BDF1, males, in feed, site: lung, lesion: adenoma, dosed 104 weeks, study length 104 weeks) was 53900 mg/kg/day (inactive); the TD50 (mouse, strain Charles River CD1, females, in feed, site: liver, lesion: hemangioma, dosed 93 weeks, study length 100 weeks) was 4460 mg/kg/day (inactive); the TD50 (mouse, strain Charles River CD1, males, in feed, site: all sites, lesion: myeloid leukemia, dosed 93 weeks, study length 100 weeks) is 588 mg/kg/day (inactive). Also, the TD50 by setting is: (mouse, strain Charles River CD1, males, in feed, site: liver, lesion: hepatocellular adenoma, dosed 93 weeks, study length 100 weeks) 1200 mg/kg/day (inactive); (mouse, strain Charles River CD1, males, in feed, site: lung, lesion: alveolar-cell adenoma, dosed 93 weeks, study length 100 weeks) 833 mg/kg/day (inactive); (mouse, strain Charles River CD1, males, in feed, site: lung, lesion: alveolar-cell carcinoma, dosed 93 weeks, study length 100 weeks) 17000 mg/kg/day (inactive); (rat, strain Charles River CD (Sprague-Dawley), males, in feed, site: any site (literature study), lesion: malignant tumor, dosed 104 weeks, study length 104 weeks) 1200 mg/kg/day (inactive); (rat, strain Charles River CD (Sprague-Dawley), males, in feed, site: mammary gland, lesion: fibroadenoma, dosed 104 weeks, study length 104 weeks) 878 mg/kg/day (inactive); (rat, strain Fischer 344, females, in feed, site: clitoral gland, lesion: adenoma, dosed 103 weeks, study length 105 weeks) 93.7 mg/kg/day (inactive). The TD50 reads like this: (rat, strain Fischer 344, males, in feed, site: kidney, lesion: tubule adenoma + tubule carcinoma, dosed 103 weeks, study length 105 weeks) 163 mg/kg/day and 698 mg/kg/day; (rat, strain Fischer 344, males, in feed, site: liver, lesion: hepatocellular adenoma + hepatocellular carcinoma + neoplastic nodule, dosed 103 weeks, study length 105 weeks) 332 mg/kg/day; (rat, strain Fischer 344, males, in feed, site: subcutaneous tissue, lesion: fibroma, dosed 103 weeks, study length 105 weeks) 303 mg/kg/day; (rat, strain Holtzman albino (Sprague-Dawley derived), females, in feed, site: mammary gland, lesion: fibroadenoma, dosed 36 weeks, study length 54 weeks) 120 mg/kg/day (inactive); (rat, strain Holtzman albino (Sprague-Dawley derived), females, in feed, site: mammary tissue, wider than the gland, lesion: one or several types, types not named, dosed 44 weeks, study length 60 weeks) 214 mg/kg/day (inactive); (rat, strain Sprague-Dawley, females, in feed, site: any site (literature study), lesion: several types, types named in the paper, dosed 75 weeks, study length 80 weeks) 185 mg/kg/day (inactive). The TD50 reads like this: (rat, strain Sprague-Dawley, females, in feed, site: any site (literature study), lesion: several types, types named in the paper, dosed 104 weeks, study length 104 weeks) 64.2 mg/kg/day; (rat, strain Sprague-Dawley, females, in feed, site: mammary gland, lesion: fibroadenoma, dosed 104 weeks, study length 104 weeks) 54.3 mg/kg/day. Moreover, the carcinogen call was “negative (inactive)” (mouse, strain B6C3F1, males, in feed, site: any site (literature study), lesion: several types, types named in the paper, dosed 103 weeks, study length 105 weeks); “negative (inactive)” (mouse, strain BDF1, females, in feed, site: any site (literature study), lesion: several types, types named in the paper, dosed 104 weeks, study length 104 weeks); “negative (inactive)” (mouse, strain BDF1, females, in feed, site: liver, lesion: hemangioma, dosed 104 weeks, study length 104 weeks); “negative (inactive)” (mouse, strain BDF1, females, in feed, site: lung, lesion: adenocarcinoma, dosed 104 weeks, study length 104 weeks); “negative (inactive)” (mouse, strain BDF1, males, in feed, site: any site (literature study), lesion: several types, types named in the paper, dosed 104 weeks, study length 104 weeks); “negative (inactive)” (mouse, strain BDF1, males, in feed, site: liver, lesion: adenoma, dosed 104 weeks, study length 104 weeks). Also, the carcinogen call is “negative (inactive)” (mouse, strain BDF1, males, in feed, site: liver, lesion: hemangioma, dosed 104 weeks, study length 104 weeks); “negative (inactive)” (mouse, strain Charles River CD1, females, in feed, site: liver, lesion: hemangiosarcoma, dosed 93 weeks, study length 100 weeks); “negative (inactive)” (mouse, strain Charles River CD1, females, in feed, site: liver, lesion: hepatocellular adenoma, dosed 93 weeks, study length 100 weeks); “negative (inactive)” (mouse, strain Charles River CD1, females, in feed, site: lung, lesion: alveolar-cell adenoma, dosed 93 weeks, study length 100 weeks); “negative (inactive)” (mouse, strain Charles River CD1, females, in feed, site: lung, lesion: alveolar-cell carcinoma, dosed 93 weeks, study length 100 weeks); “negative (inactive)” (mouse, strain Charles River CD1, males, in feed, site: liver, lesion: hemangiosarcoma, dosed 93 weeks, study length 100 weeks). For the same compound, the carcinogen call was “negative (inactive)” (mouse, strain Charles River CD1, males, in feed, site: liver, lesion: hepatocellular carcinoma, dosed 93 weeks, study length 100 weeks); “negative (inactive)” (rat, strain Charles River CD (Sprague-Dawley), females, in feed, site: any site (literature study), lesion: malignant tumor, dosed 104 weeks, study length 104 weeks); “negative (inactive)” (rat, strain Charles River CD (Sprague-Dawley), females, in feed, site: any site (literature study), lesion: one or several types, types not named, dosed 104 weeks, study length 104 weeks); “negative (inactive)” (rat, strain Charles River CD (Sprague-Dawley), females, in feed, site: mammary gland, lesion: several types, types named in the paper, dosed 104 weeks, study length 104 weeks); “negative (inactive)” (rat, strain Charles River CD (Sprague-Dawley), males, in feed, site: any site (literature study), lesion: one or several types, types not named, dosed 104 weeks, study length 104 weeks); “negative (inactive)” (rat, strain Fischer 344, males, in feed, site: urinary bladder, lesion: one or several types, types not named, dosed 104 weeks, study length 104 weeks).

With `CC1SC(C)N(N=O)C(C)S1` (stereo not given), the TD50 is, setting by setting: (rat, strain Fischer 344, females, by gavage, site: esophagus, lesion: squamous-cell carcinoma, dosed 43 weeks, study length 90 weeks) 1.63 mg/kg/day; (rat, strain Fischer 344, females, by gavage, site: esophagus, lesion: squamous-cell tumor, dosed 43 weeks, study length 90 weeks) 0.483 mg/kg/day; (rat, strain Fischer 344, females, by gavage, site: liver, lesion: cholangioma, dosed 43 weeks, study length 90 weeks) 3.58 mg/kg/day; (rat, strain Fischer 344, females, by gavage, site: liver, lesion: hepatocellular adenoma, dosed 43 weeks, study length 90 weeks) 2.61 mg/kg/day; (rat, strain Fischer 344, females, by gavage, site: tongue, lesion: squamous-cell tumor, dosed 43 weeks, study length 90 weeks) 1.53 mg/kg/day.

For the compound `O=C1OC(CN2CCOCC2)CN1/N=C/c1ccc([N+](=O)[O-])o1` (stereo not given), the TD50 is 39 mg/kg/day (rat, strain Sprague-Dawley, females, in feed, site: all sites, lesion: lymphoblastic lymphoma, dosed 46 weeks, study length 66 weeks); 2.81 mg/kg/day (rat, strain Sprague-Dawley, females, in feed, site: any site (literature study), lesion: several types, types named in the paper, dosed 46 weeks, study length 66 weeks); 149 mg/kg/day (rat, strain Sprague-Dawley, females, in feed, site: kidney/pelvis, lesion: transitional-cell carcinoma, dosed 46 weeks, study length 66 weeks); 6.33 mg/kg/day (rat, strain Sprague-Dawley, females, in feed, site: mammary gland, lesion: adenocarcinoma, dosed 46 weeks, study length 66 weeks); 2.81 mg/kg/day (rat, strain Sprague-Dawley, females, in feed, site: mammary gland, lesion: several types, types named in the paper, dosed 46 weeks, study length 66 weeks).

As for `ClCOCc1ccc(COCCl)cc1`, the TD50 (mouse, strain Ha/ICR, females, i.p., site: abdomen, lesion: sarcoma, dosed 77 weeks, study length 77 weeks) is 3.11 mg/kg/day.

Take `O=C(Nc1ccc([N+](=O)[O-])cc1Cl)c1cc(Cl)ccc1O`: the carcinogen call runs as follows: (mouse, strain B6C3F1, females, in feed, site: any site (literature study), lesion: several types, types named in the paper, dosed 78 weeks, study length 91 weeks) “negative (inactive)”; (rat, strain Osborne-Mendel, males, in feed, site: any site (literature study), lesion: several types, types named in the paper, dosed 78 weeks, study length 110 weeks) “negative (inactive)”. Moreover, the TD50 reads like this: (mouse, strain B6C3F1, males, in feed, site: any site (literature study), lesion: several types, types named in the paper, dosed 78 weeks, study length 91 weeks) 175 mg/kg/day; (rat, strain Osborne-Mendel, females, in feed, site: any site (literature study), lesion: several types, types named in the paper, dosed 78 weeks, study length 110 weeks) 2070 mg/kg/day; (rat, strain Osborne-Mendel, females, in feed, site: liver, lesion: hepatocellular adenoma + hepatocellular carcinoma + neoplastic nodule, dosed 78 weeks, study length 110 weeks) 13300 mg/kg/day; (rat, strain Osborne-Mendel, females, in feed, site: thyroid gland, lesion: c-cell adenoma + c-cell carcinoma, dosed 78 weeks, study length 110 weeks) 6670 mg/kg/day; (rat, strain Osborne-Mendel, females, in feed, site: uterus, lesion: endometrial stromal polyp, dosed 78 weeks, study length 110 weeks) 5060 mg/kg/day (inactive).

Regarding `C=CCOCC1CO1` (stereo not given), the TD50 reads like this: (mouse, strain B6C3F1, females, inhaled, site: Harderian gland, lesion: adenoma, dosed 102 weeks, study length 105 weeks) 121 mg/kg/day; (mouse, strain B6C3F1, females, inhaled, site: lung, lesion: alveolar/bronchiolar adenoma + alveolar/bronchiolar carcinoma, dosed 102 weeks, study length 105 weeks) 123 mg/kg/day; (mouse, strain B6C3F1, females, inhaled, site: nasal cavity, respiratory epithelium, lesion: adenoma, dosed 102 weeks, study length 105 weeks) 614 mg/kg/day; (mouse, strain B6C3F1, males, inhaled, site: lung, lesion: alveolar/bronchiolar adenoma + alveolar/bronchiolar carcinoma, dosed 102 weeks, study length 105 weeks) 727 mg/kg/day; (mouse, strain B6C3F1, males, inhaled, site: nasal cavity, respiratory epithelium, lesion: adenoma, dosed 102 weeks, study length 105 weeks) 182 mg/kg/day; (rat, strain Osborne-Mendel, females, inhaled, site: any site (literature study), lesion: several types, types named in the paper, dosed 103 weeks, study length 106 weeks) 25.9 mg/kg/day (inactive). Besides, the TD50 reads like this: (rat, strain Osborne-Mendel, males, inhaled, site: any site (literature study), lesion: several types, types named in the paper, dosed 103 weeks, study length 106 weeks) 1.01 mg/kg/day; (rat, strain Osborne-Mendel, males, inhaled, site: nasal cavity, olfactory epithelium + nasal cavity, respiratory epithelium, lesion: adenocarcinoma + papillary adenoma + squamous-cell carcinoma, dosed 103 weeks, study length 106 weeks) 14.9 mg/kg/day.
